One series addresses T1, human VR1 (Homo sapiens, UniProt Q8NER1).
T1 construct: The cloned hVR1 cDNA was constructed with pcDNA3 vector and transfected into a CHOluc9aeq cell line; expressed in transfected cells
As to the kind of experiment: Capsaicin-induced Ca2+ influx in the human VR1-transfected CHO cell line (Assay 1). The note with it: read-out: hVR1 class. The series is classed as cell-based. From the text:
[Measurement of Capsaicin-Induced Ca^2+ Influx in the Human VR1-Transfected CHO Cell Line] (Assay 1)
(1) Establishment of the Human VR1-CHOluc9aeq Cell Line
Human vanilloid receptor (hVR1) cDNA was cloned from libraries of axotomized dorsal root ganglia (WO2000/29577). The cloned hVR1 cDNA was constructed with pcDNA3 vector and transfected into a CHOluc9aeq cell line. The cell line contains aequorin and CRE-luciferase reporter genes as read-out signals. The transfectants were cloned by limiting dilution in selection medium (DMEM/F12. medium (Gibco BRL) supplemented with 10% FCS, 1.4 mM Sodium pyruvate, 20 mM HEPES, 0.15% Sodium bicarbonate, 100 U/ml penicillin, 100 μg/ml strept mycin, 2 mM glutamine, non-essential amino acids and 2 mg/ml G418). Ca^2+ influx was examined in the capsaicin-stimulated clones. A high responder clone was selected and used for further experiments in the project. The human VR1-CHOluc9aeq cells were maintained in the selection medium and passaged every 3-4 days at 1-2.5×10^5 cells/flask ([…]).
(2) Measurement of Ca^2+ Influx Using FDSS-3000
Human VR1-CHOluc9aeq cells were suspended in a culture medium which is the same as the selection medium except for G418 and seeded at a density of 1,000 cells per well into 384-well plates (black walled clear-base/Nalge Nunc International). Following the culture for 48 hrs the medium was changed to 2 μM Fluo-3 AM (Molecular Probes) and 0.02% Puronic F-127 in assay buffer (Hank's balanced salt solution (HBSS), 17 mM HEPES (pH7.4), 1 mM Probenecid, 0.1% BSA) and the cells were incubated for 60 min at 25° C. After washing twice with assay buffer the cells were incubated with a test compound or vehicle for 20 min at 25° C. Mobilization of cytoplasmic Ca^2+ was measured by FDSS-3000 (λex=488 nm, λem=540 nm/Hamamatsu Photonics) for 60 sec after the stimulation with 10 nM capsaicin. Integral R was calculated and compared with controls.
The data corresponds to the compounds as yielded by solid phase synthesis and thus to levels of purity of about 40 to 90%.

Each structure is given as a SMILES string.

T1 sequence (Q8NER1 whole entry): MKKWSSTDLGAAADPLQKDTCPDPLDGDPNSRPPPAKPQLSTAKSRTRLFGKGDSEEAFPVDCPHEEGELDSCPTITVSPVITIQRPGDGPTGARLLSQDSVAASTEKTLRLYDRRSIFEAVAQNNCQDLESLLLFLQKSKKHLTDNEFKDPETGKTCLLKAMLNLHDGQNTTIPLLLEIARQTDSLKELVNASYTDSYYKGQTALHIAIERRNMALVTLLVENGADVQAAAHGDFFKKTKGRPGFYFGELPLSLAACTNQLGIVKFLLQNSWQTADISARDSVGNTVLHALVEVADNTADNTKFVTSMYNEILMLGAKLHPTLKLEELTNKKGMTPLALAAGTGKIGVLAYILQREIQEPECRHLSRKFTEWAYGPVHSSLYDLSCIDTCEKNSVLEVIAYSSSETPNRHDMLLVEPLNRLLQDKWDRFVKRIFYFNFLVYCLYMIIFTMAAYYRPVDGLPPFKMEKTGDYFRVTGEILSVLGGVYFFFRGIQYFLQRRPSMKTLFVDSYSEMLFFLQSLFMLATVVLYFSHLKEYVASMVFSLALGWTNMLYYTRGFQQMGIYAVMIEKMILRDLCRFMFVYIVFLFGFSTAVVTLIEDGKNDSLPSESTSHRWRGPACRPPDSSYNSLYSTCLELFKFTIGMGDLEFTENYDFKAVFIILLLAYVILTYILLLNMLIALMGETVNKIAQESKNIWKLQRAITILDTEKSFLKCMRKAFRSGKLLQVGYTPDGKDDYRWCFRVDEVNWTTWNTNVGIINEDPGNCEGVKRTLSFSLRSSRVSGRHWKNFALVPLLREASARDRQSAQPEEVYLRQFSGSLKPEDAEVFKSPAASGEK

As a reminder, the melting point is the temperature of the solid-liquid transition. For the compound `O=C(Nc1ccc(Cl)c(C(F)(F)F)c1)Nc1ccc2[nH]c(=S)sc2c1` [Example 18], the melting point is greater than 250 °C. Also, the IC50 at human VR1 lay within 500 to 1000 nM.
On the same counts, the results for `O=C(Cc1ccc(Cl)c(C(F)(F)F)c1)Nc1ccc2cn[nH]c2c1` [Example 19] are greater than 250 °C and 500 to 1000 nM.
The corresponding values for `Cc1cccc(NC(=O)Nc2ccc3sc(C)nc3c2)c1` [Example 20] are 200 to 202 °C and less than 100 nM.
On to `CSc1cccc(NC(=O)Nc2ccc3sc(C)nc3c2)c1` [Example 21], for which the melting point was in the range of 225 to 227 °C. For the same compound, the IC50 at human VR1 lay in the range of 100 to 500 nM.
The corresponding values for `Cc1nc2cc(NC(=O)Nc3ccc(F)cc3)ccc2s1` [Example 22] are 241 to 242 °C and less than 100 nM.
On the same counts, the results for `Cc1nc2cc(NC(=O)Nc3cccc(C(F)(F)F)c3)ccc2s1` [Example 23] are 229 to 231 °C and less than 100 nM.
The corresponding values for `COc1cccc(NC(=O)Nc2ccc3sc(C)nc3c2)c1` [Example 24] are 199 to 201 °C and 100 to 500 nM.
`Cc1nc2cc(NC(=O)Nc3ccc(Oc4ccccc4)cc3)ccc2s1` [Example 25] displayed a melting point of 228 to 229 °C. In addition, the IC50 at human VR1 is less than 100 nM.
Consider `Cc1nc2cc(NC(=O)Nc3ccc(Br)cc3)ccc2s1` [Example 26], for which the melting point is greater than 250 °C. Also, the IC50 at human VR1 is less than 100 nM.
Regarding `Cc1nc2cc(NC(=O)Nc3ccc4ccccc4c3)ccc2s1` [Example 27], the melting point was greater than 250 °C. Besides, the IC50 on human VR1 is less than 100 nM.
Consider `COc1ccc(NC(=O)Nc2ccc3sc(C)nc3c2)cc1` [Example 28], for which the melting point fell in the range of 215 to 217 °C. Moreover, the IC50 on human VR1 was in the range of 100 to 500 nM.
Consider `Cc1nc2cc(NC(=O)Nc3ccc(F)cc3F)ccc2s1` [Example 30], for which the melting point lay within 243 to 244 °C. Also, the IC50 at human VR1 is less than 100 nM.
The corresponding values for `Cc1nc2cc(NC(=O)Nc3ccc(C)c(Cl)c3)ccc2s1` [Example 31] are 230 to 232 °C and less than 100 nM.
The corresponding values for `Cc1nc2cc(NC(=O)Nc3cc(C(F)(F)F)ccc3Cl)ccc2s1` [Example 32] are 240 to 241 °C and less than 100 nM.
On the same counts, the results for `Cc1cccc(NC(=O)Nc2cccc3[nH]ccc23)c1` [Example 33] are 237 to 239 °C and 100 to 500 nM.
As for `CSc1cccc(NC(=O)Nc2cccc3[nH]ccc23)c1` [Example 34], the melting point lay within 198 to 201 °C. Moreover, the IC50 at human VR1 fell in the range of 100 to 500 nM.
The corresponding values for `O=C(Nc1ccc(F)cc1)Nc1cccc2[nH]ccc12` [Example 35] are 239 to 241 °C and 100 to 500 nM.
On the same counts, the results for `COc1cccc(NC(=O)Nc2cccc3[nH]ccc23)c1` [Example 36] are 219 to 221 °C and 100 to 500 nM.
The corresponding values for `O=C(Nc1ccc(Oc2ccccc2)cc1)Nc1cccc2[nH]ccc12` [Example 37] are 212 to 214 °C and 100 to 500 nM.
In the case of `Cc1cccc(NC(=O)Nc2ccc3c(c2)S(=O)(=O)C=C3)c1` [Example 38], the melting point lay in the range of 219 to 222 °C. In addition, the IC50 at human VR1 was in the range of 500 to 1000 nM.
The corresponding values for `Cc1nc2cc(NC(=O)Nc3ccc(C(C)C)cc3)ccc2s1` [Example 39] are 208 to 210 °C and less than 100 nM.
On the same counts, the results for `Cc1nc2cc(NC(=O)Nc3cccc4ccccc34)ccc2s1` [Example 40] are greater than 250 °C and less than 100 nM.
On the same counts, the results for `O=C(Nc1cccc(C(F)(F)F)c1)Nc1cccc2[nH]ccc12` [Example 41] are 211 to 213 °C and less than 100 nM.
Take `CSc1cccc(NC(=O)Nc2ccc3c(c2)S(=O)(=O)C=C3)c1` [Example 42]: the melting point lay in the range of 212 to 213 °C. For the same compound, the IC50 at human VR1 fell in the range of 100 to 500 nM.
For the compound `O=C(Nc1ccc(F)cc1)Nc1ccc2c(c1)S(=O)(=O)C=C2` [Example 43], the melting point fell in the range of 242 to 243 °C. Besides, the IC50 at human VR1 lay within 500 to 1000 nM.
For the compound `COc1cccc(NC(=O)Nc2ccc3c(c2)S(=O)(=O)C=C3)c1` [Example 45], the melting point fell in the range of 206 to 208 °C. Besides, the IC50 on human VR1 is 500 to 1000 nM.
On the same counts, the results for `O=C(Nc1cccc(-c2ccccc2)c1)Nc1ccc2[nH]ccc2c1` [Example 46] are 204 to 206 °C and 100 to 500 nM.
The corresponding values for `Cc1nc2cc(NC(=O)Nc3ccc(Cl)c(C(F)(F)F)c3)ccc2[nH]1` [Example 48] are 162 to 166 °C and 500 to 1000 nM.
The corresponding values for `Cc1nc2cc(NC(=O)Nc3ccc(Oc4ccccc4)cc3)ccc2[nH]1` [Example 49] are 243 to 245 °C and 500 to 1000 nM.
The compound `Cc1nc2cc(NC(=O)Nc3ccc(C(C)C)cc3)ccc2[nH]1` [Example 50] returned a melting point greater than 250 °C. Further, at human VR1, the IC50 lay within 500 to 1000 nM.
Compound `Cc1nc2cc(NC(=O)Nc3ccc(C)c(Cl)c3)ccc2[nH]1` [Example 51] showed a melting point of 200 to 204 °C. Moreover, the IC50 at human VR1 lay in the range of 500 to 1000 nM.
On the same counts, the results for `Cc1nc2cc(NC(=O)Nc3ccc(Br)cc3)ccc2[nH]1` [Example 52] are greater than 250 °C and 500 to 1000 nM.
On the same counts, the results for `Cc1nc2c(NC(=O)Nc3ccc(Cl)c(C(F)(F)F)c3)cccc2[nH]1` [Example 53] are 189 to 191 °C and less than 100 nM.
In turn, `Cc1nc2c(NC(=O)Nc3ccc(Oc4ccccc4)cc3)cccc2[nH]1` [Example 54] had a melting point of 223 to 225 °C. Besides, the IC50 on human VR1 is less than 100 nM.
On the same counts, the results for `Cc1nc2c(NC(=O)Nc3ccc(C(C)C)cc3)cccc2[nH]1` [Example 55] are 216 to 218 °C and 100 to 500 nM.
On the same counts, the results for `Cc1nc2cc(NC(=O)Nc3cccc(-c4ccccc4)c3)ccc2s1` [Example 56] are 216 to 219 °C and 100 to 500 nM.
The corresponding values for `O=C(Nc1ccc(Cl)c(C(F)(F)F)c1)Nc1ccc2[nH]cnc2c1` [Example 57] are 218 to 220 °C and 100 to 500 nM.
As for `O=C(Nc1ccc(Oc2ccccc2)cc1)Nc1ccc2[nH]cnc2c1` [Example 58], the melting point is 235 to 237 °C. For the same compound, the IC50 at human VR1 lay within 100 to 500 nM.
On the same counts, the results for `CC(C)c1ccc(NC(=O)Nc2ccc3[nH]cnc3c2)cc1` [Example 59] are 226 to 229 °C and 500 to 1000 nM.
The corresponding values for `O=C(Nc1ccc(Br)cc1)Nc1cccc2[nH]ccc12` [Example 60] are 238 to 240 °C and 100 to 500 nM.
On the same counts, the results for `COc1ccc(NC(=O)Nc2cccc3[nH]ccc23)cc1` [Example 61] are 230 to 232 °C and 500 to 1000 nM.
`O=C(Nc1cccc2ccccc12)Nc1cccc2[nH]ccc12` [Example 62] yielded a melting point greater than 250 °C. Also, on human VR1, the IC50 is less than 100 nM.
In the case of `O=C(Nc1ccc(Cl)c(Cl)c1)Nc1cccc2[nH]ccc12` [Example 63], the melting point was 244 to 245 °C. Further, the IC50 at human VR1 was less than 100 nM.
The corresponding values for `O=C(Nc1ccc(F)cc1F)Nc1cccc2[nH]ccc12` [Example 64] are 247 to 248 °C and 500 to 1000 nM.
With `Cc1ccc(NC(=O)Nc2cccc3[nH]ccc23)cc1Cl` [Example 65], the melting point was 246 to 247 °C. Also, the IC50 at human VR1 is less than 100 nM.
With `CC(C)c1ccc(NC(=O)Nc2cccc3[nH]ccc23)cc1` [Example 66], the melting point was in the range of 222 to 224 °C. For the same compound, the IC50 on human VR1 was less than 100 nM.
The corresponding values for `O=C(Nc1ccc(F)cc1)Nc1ccc2[nH]ncc2c1` [Example 67] are greater than 250 °C and 500 to 1000 nM.
On the same counts, the results for `O=C(Nc1cc(C(F)(F)F)ccc1Cl)Nc1cccc2[nH]ccc12` [Example 68] are 211 to 213 °C and less than 100 nM.
Regarding `O=C(Nc1ccc(Oc2ccccc2)cc1)Nc1ccc2[nH]ccc2c1` [Example 69], the melting point lay within 231 to 233 °C. The IC50 on human VR1 lay in the range of 100 to 500 nM.
For `Cc1cccc(NC(=O)Nc2ccc3[nH]ccc3c2)c1` [Example 70], the melting point worked out at 250 °C. Besides, the IC50 at human VR1 was 500 to 1000 nM.
The corresponding values for `CSc1cccc(NC(=O)Nc2ccc3[nH]ccc3c2)c1` [Example 71] are 236 to 239 °C and 100 to 500 nM.
On the same counts, the results for `O=C(Nc1ccc(F)cc1)Nc1ccc2[nH]ccc2c1` [Example 72] are 243 to 245 °C and 500 to 1000 nM.

Source of the values: patent publication US20050119304A1, “Urea derivatives” (priority 2001, published 2005).
